The values that follow come from US5220042A, “1,4-benzoquinone derivatives and benzene derivatives, and process for preparing the same” (priority 1984, dated 1993).

The subject of test [1] is SRS-A release from lung fragments. Kind of test: Inhibition of SRS-A release from sensitized guinea pig lung fragments. The test is classed as cell-based, guinea pig (Hartley strain). As to conditions: Cavia porcellus. In outline: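 Lung fragments from ovalbumin-sensitized male Hartley guinea pigs were preincubated 5 min at 37 °C in Tyrode's, given compound in DMSO for 5 min, then challenged with ovalbumin for 10 min. Released histamine was bioassayed by guinea pig ileum contraction at 30 s. SRS-A was read at 2 min with 10^-6 M pyrilamine against a crude SRS-A standard curve.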

The test system of test [2] is histamine release on anaphylaxis in abdominal cavity. Description: Histamine releasing inhibition test on anaphylaxis in abdominal cavity of rats. In kind it is in vivo, rat (Sprague-Dawley strain). As to conditions: oral, 3 hours before anaphylaxis; dose not given. How it is done:
(§1) SRS-A and histamine releasing inhibition test on anaphylaxis in abdominal cavity of rats.
(§2) Male or female rats (Sprague-Dawley strain, delivered from Charles River, Japan Ltd., Tokyo) of 6-7 week age were used as the test animals. The test animals were devided into a group consisting of 6 animals in one group depending on their body weight. The animals were fasted overnight. The test was conducted by a method according to P. T. Orange et al.: "J. Immunol., Vol. 105", pages 1087-1095 (1970).
(§3) 1 Milliliter each of twofold diluted anti-ovalbumin serm of rat was intraperitoneally injected to each of the test animal so as to have the rat sensitized. 2 Hours after the sensitization, 5 ml of Tyrode's solution containing 2 mg of ovalbumin and 250 micrograms of heparin sodium was intraperitoneally administered to the test animal to cause anaphylaxis. 5 Minutes after, the test animal was stunned by the blow on the head and was exsanguinated and killed by cervical incision. Additional 5 minutes later, the abdominal fluid was collected from the opening of the abdomen. The fluid collected was centrifuged at 4° C., first at 800 rpm, then at 2,500 rpm and the supernatant was collected, and stored at -80° C. until the bioassay was conducted. […]
(§4) The amount of SRS-A and histamine contained in the collected abdominal fluid was measured by a method similar to that employed in Pharmacological test-2.
(§5) Bio-assay of the collected abdominal fluid was conducted by using ileum of guinea pig which was treated with atropine. […] The isotonic contraction of the piece of the ileum was measured at 0.5 g of load by using an isotonic transducer "TD-112S" (manufactured by Nihon Koden Co., Ltd.). The measurements were recorded on an ink-writing recorder.
After stabilization of the contraction reaction due to histmine, the amount of histamine was measured quantitatively by observing the contraction of the piece of the ileum shown within 30 seconds after addition of 0.05-0.4 ml of the abdominal fluid. […]

The test system of test [3] is SRS-A release on anaphylaxis in abdominal cavity. Kind of test: SRS-A releasing inhibition test on anaphylaxis in abdominal cavity of rats. The test is classed as in vivo, rat (Sprague-Dawley strain). Conditions: oral, 3 hours before anaphylaxis; dose not given. How it is done:
as §1, §2, §3, §4, §5
The amount of SRS-A was measured by using the value of contraction shown after the addition of 0.2-0.5 ml of the collected fluid in the presence of 10^-7 M of pyrilamine (antihistaminic agent), said value of the contraction was calculated as contraction activity caused by 5 ng of histamine. […]

The mark [4] stands for this setting: Table 2, dose 3 μM, read-out: Inhibition ratio (%) SRS-A.
Where [5] appears, read: Table 2, dose 30 μM, read-out: Inhibition ratio (%) SRS-A.
The mark [6] stands for this setting: Table 2B, 3 μM, read-out: Inhibitory activities on SRS-A (%).
Setting [7] is: Table 2B, 30 μM, read-out: Inhibitory activities on SRS-A (%).

SMILES strings stand for the structures. Read-outs that look alike come from different tables or passages of the source. Some results are limits rather than exact numbers.

`COC1=CC(=O)C(OC)=C(CCCCCC2=C(OC)C(=O)C=C(OC)C2=O)C1=O` [Test Compound No. 9, 2,2'-Pentamethylenebis(3,6-dimethoxy-1,4-benzoquinone)]: the inhibition at 3 µM in test [1] (setting [4]) and in test [1] (setting [6]) was 50.3% in each case. For the same molecule, the inhibition at 30 µM in test [1] (setting [5]) is > 94.8%; in test [1] (setting [7]) it was 94.2%. Further, the “Inhibitory rate (%) Histamine” value in test [2] is -3.6%. Besides, in test [3], the “Inhibitory rate (%) SRS-A” value came to 4.9%.

With `COC1=CC(=O)C(OC)=C(CCCCCC#CCCCCCC2=C(OC)C(=O)C=C(OC)C2=O)C1=O` [Test Compound No. 16, 2,2'-(6-Dodecynylene)bis(3,6-dimethoxy-1,4-benzoquinone)], the inhibition at 3 µM in test [1] (setting [4]) and in test [1] (setting [6]) was 23.4% in each case. Also, the inhibition at 30 µM in test [1] (setting [5]) and in test [1] (setting [7]) was 43.9% in each case. In addition, in test [2], the “Inhibitory rate (%) Histamine” value was 8.0%. For the same molecule, the “Inhibitory rate (%) SRS-A” value in test [3] was found to be 15.5%.

In the case of `COC1=CC(=O)C(OC)=C(CCCCCCCCCC2=C(OC)C(=O)C=C(OC)C2=O)C1=O` [Test Compound No. 13, 2,2'-Nonamethylenebis(3,6-dimethoxy-1,4-benzoquinone)], the inhibition at 3 µM in test [1] (setting [4]) and in test [1] (setting [6]) was 22.4% throughout. For the same molecule, the inhibition at 30 µM in test [1] (setting [5]) and in test [1] (setting [7]) was 43.9% in each case. The “Inhibitory rate (%) Histamine” value in test [2] is listed as 10.9%. Further, the “Inhibitory rate (%) SRS-A” value in test [3] amounted to 25.8%.
